Patent publication US20230096517A1, “GLUTARIMIDE SKELETON-BASED COMPOUNDS AND APPLICATION THEREOF” (SHANGHAITECH UNIVERSITY, priority 2020, published 2023)

Tested on: MM.1S cells
Experiment: Proliferation inhibition (IC50) in multiple myeloma cells, cell viability with WST/CCK-8 reagent;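 note: MM.1S B-lymphoblast cells at 15,000 per well in 100 µL serum-containing RPMI1640, experiment run more than three times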
Details: Homo sapiens, MM1.S, 72 h, read-out: IC50 (half inhibitory concentration)
Method: Multiple myeloma cell line: MM.1S (B lymphoblast), purchased from ATCC (American Type Culture Collection). Culture medium was RPMI1640 supplemented with 10% FBS and 1% Penicillin-Streptomycin. The cells used were identified as correct cells by STR cells and negative for mycoplasma by routine inspections.
IC50 values of the compounds of the present disclosure were measured using Cell Titer Blue, Cell Titer GLO, or WST reagent from Promega Company. Assay details are as follows: Cells were seeded in 100 μL RPMI1640 complete medium containing serum at a density of 15,000 cells/well.
The experiment was repeated more than three times.

SMILES | IC50 [nM]
O=C1CCC(N2Cc3c(CCCCCCCNCC45CC6CC(CC(C6)C4)C5)cccc3C2=O)C(=O)N1 (stereo not shown) [SIAIS1222021, 3-(4-(7-(((adamantan-1-yl)methyl)amino)heptyl)-1-oxoisoindolin-2-yl)piperidine-2,6-dione] | 0.781
O=C1CCC(N2C(=O)c3cccc(NCCCCCCNC45CC6CC(CC(C6)C4)C5)c3C2=O)C(=O)N1 (stereo not shown) [SIAIS1222093, 4-((6-((adamantan-1-yl)amino)hexyl)amino)-2-(2,6-dioxopiperidin-3-yl)isoindoline-1,3-dione] | 1.58
O=C1CCC(N2Cc3c(OCCCCCCCNC4CCCCC4)cccc3C2=O)C(=O)N1 (stereo not shown) [SIAIS1221187, 3-(4-((7-(cyclohexylamino)heptyl)oxy)-1-oxoisoindolin-2-yl)piperidine-2,6-dione] | 1.13
CC1(C)[C@@H]2CC[C@@]1(C)[C@@H](NCCCCCCCOc1cccc3c1CN(C1CCC(=O)NC1=O)C3=O)C2 (stereo partly drawn) [SIAIS1221189, 3-(1-oxo-4-((7-(((1R,2S,4R)-1,7,7-trimethylbicyclo[2.2.1]heptan-2-yl)amino)heptyl)oxy)isoindolin-2-yl)piperidine-2,6-dione] | 1.2
O=C1CCC(N2Cc3c(OCCCCCCC(=O)NC45CC6CC(CC(C6)C4)C5)cccc3C2=O)C(=O)N1 (stereo not shown) [SIAIS1242075, N-(adamantan-1-yl)-7-((2-(2,6-dioxopiperidin-3-yl)-1-oxoisoindolin-4-yl)oxy)heptanamide] | 0.877
O=C1CCC(N2Cc3c(NCCCCCCCN4CCCCC4)cccc3C2=O)C(=O)N1 (stereo not shown) [SIAIS1220125, 3-(1-oxo-4-((7-(piperidin-1-yl)heptyl)amino)isoindolin-2-yl)piperidine-2,6-dione, reference compound] | 697
O=C1CCC(N2C(=O)c3cccc(OCCCCCCCN4CCCCC4)c3C2=O)C(=O)N1 (stereo not shown) [SIAIS1221079, 2-(2,6-dioxopiperidin-3-yl)-4-((7-(piperidin-1-yl)heptyl)oxy)isoindoline-1,3-dione, reference compound] | 65.9
O=C1CCC(N2Cc3c(NCc4ccc(CCCNC56CC7CC(CC(C7)C5)C6)cc4)cccc3C2=O)C(=O)N1 (stereo not shown) [SIAIS1227077, 3-(4-((4-(3-((adamantan-1-yl)amino)propyl)benzyl)amino)-1-oxoisoindolin-2-yl)piperidine-2,6-dione] | 1.93 ± 0.31
O=C1CCC(N2Cc3c(NCCCCCCCCNC45CC6CC(CC(C6)C4)C5)cccc3C2=O)C(=O)N1 (stereo not shown) [SIAIS1222045, 3-(4-((8-((adamantan-1-yl)amino)octyl)amino)-1-oxoisoindolin-2-yl)piperidine-2,6-dione] | 3.78
O=C1CCC(N2Cc3c(CCCCCCCNC45CC6CC(CC(C6)C4)C5)cccc3C2=O)C(=O)N1 (stereo not shown) [SIAIS1224041, 3-(4-(7-((adamantan-1-yl)amino)heptyl)-1-oxoisoindolin-2-yl)piperidine-2,6-dione] | 1.11
O=C1CCC(N2Cc3c(OCCCCCCNC45CC6CC(CC(C6)C4)C5)cccc3C2=O)C(=O)N1 (stereo not shown) [SIAIS1222163, 3-(4-((6-((adamantan-1-yl)amino)hexyl)oxy)-1-oxoisoindolin-2-yl)piperidine-2,6-dione] | 2.11
CC(NCCCCCCCNc1cccc2c1C(=O)N(C1CCC(=O)NC1=O)C2=O)C12CC3CC(CC(C3)C1)C2 (stereo not shown) [SIAIS1222193] | 2.69
O=C1CCC(N2C(=O)c3cccc(NCc4ccc(CNC56CC7CC(CC(C7)C5)C6)cc4)c3C2=O)C(=O)N1 (stereo not shown) [SIAIS1222035, 4-((4-(((adamantan-1-yl)amino)methyl)benzyl)amino)-2-(2,6-dioxopiperidin-3-yl)isoindoline-1,3-dione] | 2.46
O=C1CCC(N2Cc3c(OCCCCCCCN4CCCCC4)cccc3C2=O)C(=O)N1 (stereo not shown) [SIAIS1221109, 3-(1-oxo-4-((7-(piperidin-1-yl)heptyl)oxy)isoindolin-2-yl)piperidine-2,6-dione, reference compound] | 17.6

These reach a lower IC50. Values come first.

IC50 [nM] | SMILES
0.63 | O=C1CCC(N2Cc3c(CCCCCCNC45CC6CC(CC(C6)C4)C5)cccc3C2=O)C(=O)N1 (stereo not shown) [SIAIS1224043, 3-(4-(6-((adamantan-1-yl)amino)hexyl)-1-oxoisoindolin-2-yl)piperidine-2,6-dione]
0.426 | O=C1CCC(N2Cc3c(OCCCCCCCCNC45CC6CC(CC(C6)C4)C5)cccc3C2=O)C(=O)N1 (stereo not shown) [SIAIS1222167, 3-(4-((8-((adamantan-1-yl)amino)octyl)oxy)-1-oxoisoindolin-2-yl)piperidine-2,6-dione]
0.383 | CC1(C)[C@@H]2CC[C@@]1(C)[C@@H](NCCCCCCCNc1cccc3c1C(=O)N(C1CCC(=O)NC1=O)C3=O)C2 (stereo partly drawn) [SIAIS1222041, 2-(2,6-dioxopiperidin-3-yl)-4-((7-(((1R,2S,4R)-1,7,7-trimethylbicyclo[2.2.1]heptan-2-yl)amino)heptyl)amino)isoindoline-1,3-dione]
0.326 | O=C1CCC(N2C(=O)c3cccc(NCCCCCCCNC4CCCCC4)c3C2=O)C(=O)N1 (stereo not shown) [SIAIS1222039, 4-((7-(cyclohexylamino)heptyl)amino)-2-(2,6-dioxopiperidin-3-yl)isoindoline-1,3-dione]
0.324 | O=C1CCC(N2C(=O)c3cccc(NCCCCCCCNC4CC5(CCC5)C4)c3C2=O)C(=O)N1 (stereo not shown) [SIAIS1222189, 2-(2,6-dioxopiperidin-3-yl)-4-((7-(spiro[3.3]heptan-2-ylamino)heptyl)amino)isoindoline-1,3-dione]
0.241 | O=C1CCC(N2C(=O)c3cccc(NCCCCCCC(=O)NC45CC6CC(CC(C6)C4)C5)c3C2=O)C(=O)N1 (stereo not shown) [SIAIS1242077, N-(adamantan-1-yl)-7-((2-(2,6-dioxopiperidin-3-yl)-1,3-dioxoisoindolin-4-yl)amino)heptanamide]
0.239 | CC1(C)[C@@H]2CC[C@@]1(C)[C@@H](NCc1ccc(CCc3cccc4c3CN(C3CCC(=O)NC3=O)C4=O)cc1)C2 (stereo partly drawn) [SIAIS1222055, 3-(1-oxo-4-(4-((((1R,2S,4R)-1,7,7-trimethylbicyclo[2.2.1]heptan-2-yl)amino)methyl)phenethyl)isoindolin-2-yl)piperidine-2,6-dione]
0.044 | O=C1CCC(N2Cc3c(CCCCCCCCNC45CC6CC(CC(C6)C4)C5)cccc3C2=O)C(=O)N1 (stereo not shown) [SIAIS1221105, 3-(4-(8-((adamantan-1-yl)amino)octyl)-1-oxoisoindolin-2-yl)piperidine-2,6-dione]
